Experimental data published in PMC9821108, “Biochemical and Structural Analyses Shed Light on the Mechanisms of RadD DNA Binding and Its ATPase from Escherichia coli” (International Journal of Molecular Sciences, 2023).

What was measured:
RadD [1] = biological target: T1, RadD (Escherichia coli, UniProt P33919); assay: X-ray crystal structure, […] Å; format: binding; conditions: co-crystallised with 5 mM ATP and 5 mM MgCl2, ATP hydrolysed to ADP in the crystal; site between RD1 and RD2
T1 construct: recombinant RadD from RadD-pET-28a / RadD-pGEX-6p-1 plasmids expressed in E. coli; full-length with RD1, RD2, ZFD, CTD
T1 sequence (P33919 1-586): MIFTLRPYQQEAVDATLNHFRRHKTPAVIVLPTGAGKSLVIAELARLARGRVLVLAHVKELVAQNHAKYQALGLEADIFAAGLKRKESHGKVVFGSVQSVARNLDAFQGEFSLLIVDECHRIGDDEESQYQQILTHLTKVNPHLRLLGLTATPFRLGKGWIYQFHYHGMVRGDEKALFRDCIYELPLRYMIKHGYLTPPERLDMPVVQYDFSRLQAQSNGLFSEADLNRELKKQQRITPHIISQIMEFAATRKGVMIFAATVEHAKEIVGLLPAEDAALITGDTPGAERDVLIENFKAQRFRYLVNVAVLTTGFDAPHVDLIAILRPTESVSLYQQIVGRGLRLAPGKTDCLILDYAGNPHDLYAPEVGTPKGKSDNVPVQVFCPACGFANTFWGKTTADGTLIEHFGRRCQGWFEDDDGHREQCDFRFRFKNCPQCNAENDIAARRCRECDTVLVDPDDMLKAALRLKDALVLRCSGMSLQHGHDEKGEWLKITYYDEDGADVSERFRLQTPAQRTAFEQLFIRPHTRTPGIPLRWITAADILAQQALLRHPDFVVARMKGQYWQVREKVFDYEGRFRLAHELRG

RadD [2] = biological target: T2, RadD (Escherichia coli, UniProt P33919, K68A); assay: malachite green phosphate release ATPase assay; format: biochemical; conditions: 0.375 μM enzyme, 1 mM ATP; buffer as above
T2 construct: recombinant RadD from RadD-pET-28a / RadD-pGEX-6p-1 plasmids expressed in E. coli; full-length with RD1, RD2, ZFD, CTD
T2 sequence (P33919 whole entry K68A): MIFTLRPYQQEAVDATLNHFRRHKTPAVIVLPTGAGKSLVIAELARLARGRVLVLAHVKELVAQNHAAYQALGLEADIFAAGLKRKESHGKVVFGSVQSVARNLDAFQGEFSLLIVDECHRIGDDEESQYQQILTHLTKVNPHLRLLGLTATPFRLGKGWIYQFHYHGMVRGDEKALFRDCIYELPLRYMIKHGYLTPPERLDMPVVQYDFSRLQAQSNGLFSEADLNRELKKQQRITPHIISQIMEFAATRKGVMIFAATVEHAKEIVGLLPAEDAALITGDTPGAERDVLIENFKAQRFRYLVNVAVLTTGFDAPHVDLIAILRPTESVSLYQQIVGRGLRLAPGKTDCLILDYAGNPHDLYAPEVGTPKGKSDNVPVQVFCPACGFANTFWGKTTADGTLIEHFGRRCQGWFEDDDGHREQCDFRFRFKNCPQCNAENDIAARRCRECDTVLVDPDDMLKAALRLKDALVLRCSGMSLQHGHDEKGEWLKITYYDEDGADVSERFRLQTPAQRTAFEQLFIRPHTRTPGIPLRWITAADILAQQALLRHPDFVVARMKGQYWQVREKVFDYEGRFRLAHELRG

RadD [3] = biological target: T3, RadD (Escherichia coli, UniProt P33919, R343A); assay: malachite green phosphate release ATPase assay; format: biochemical; conditions: 0.375 μM enzyme, 1 mM ATP; buffer as above
T3 construct: recombinant RadD from RadD-pET-28a / RadD-pGEX-6p-1 plasmids expressed in E. coli; full-length with RD1, RD2, ZFD, CTD
T3 sequence (P33919 whole entry R343A): as the sequence (P33919 whole entry K68A) above, with A68K, R343A counted along it

RadD [4] = biological target: T4, RadD (Escherichia coli, UniProt P33919, R6A); assay: malachite green phosphate release ATPase assay; format: biochemical; conditions: 0.375 μM enzyme, 1 mM ATP; buffer as above
T4 construct: recombinant RadD from RadD-pET-28a / RadD-pGEX-6p-1 plasmids expressed in E. coli; full-length with RD1, RD2, ZFD, CTD
T4 sequence (P33919 whole entry R6A): as the sequence (P33919 whole entry K68A) above, with R6A, A68K counted along it

RadD [5] = biological target: T5, RadD (Escherichia coli, UniProt P33919, G36E); assay: malachite green phosphate release ATPase assay; format: biochemical; conditions: 0.375 μM enzyme, 1 mM ATP; buffer as above
T5 construct: recombinant RadD from RadD-pET-28a / RadD-pGEX-6p-1 plasmids expressed in E. coli; full-length with RD1, RD2, ZFD, CTD
T5 sequence (P33919 whole entry G36E): as the sequence (P33919 whole entry K68A) above, with G36E, A68K counted along it

RadD [6] = biological target: T6, RadD (Escherichia coli, UniProt P33919, G34E); assay: malachite green phosphate release ATPase assay; format: biochemical; conditions: 0.375 μM enzyme, 1 mM ATP; buffer as above
T6 construct: recombinant RadD from RadD-pET-28a / RadD-pGEX-6p-1 plasmids expressed in E. coli; full-length with RD1, RD2, ZFD, CTD
T6 sequence (P33919 whole entry G34E): as the sequence (P33919 whole entry K68A) above, with G34E, A68K counted along it

RadD [7] = biological target: T7, RadD (Escherichia coli, UniProt P33919, K37A); assay: malachite green phosphate release ATPase assay; format: biochemical; conditions: 0.375 μM enzyme, 1 mM ATP; buffer as above
T7 construct: recombinant RadD from RadD-pET-28a / RadD-pGEX-6p-1 plasmids expressed in E. coli; full-length with RD1, RD2, ZFD, CTD
T7 sequence (P33919 whole entry K37A): as the sequence (P33919 whole entry K68A) above, with K37A, A68K counted along it

RadD [8] = biological target: T8, RadD (Escherichia coli, UniProt P33919, D117R); assay: malachite green phosphate release ATPase assay; format: biochemical; conditions: 0.375 μM enzyme, 1 mM ATP; buffer as above
T8 construct: recombinant RadD from RadD-pET-28a / RadD-pGEX-6p-1 plasmids expressed in E. coli; full-length with RD1, RD2, ZFD, CTD
T8 sequence (P33919 whole entry D117R): as the sequence (P33919 whole entry K68A) above, with A68K, D117R counted along it

RadD [9] = biological target: T1, RadD; assay: X-ray crystal structure, […] Å; format: binding; conditions: co-crystallised with 5 mM ATPγS, no Mg added; site between RD1 and RD2
[10] = biological target: RadD CTD (Escherichia coli) (UniProt P33919); assay: EMSA; conditions: 20 mM Bis-Tris pH 6.5, 50 mM NaCl, 15% glycerol, 10 mM beta-mercaptoethanol, 37 C 30 min, 33 nM HJ, 0-20 uM RadD; 8% native PAGE in 0.5x TBE; text says …
[11] = biological target: RadD ZFD (Escherichia coli) (UniProt P33919); assay: EMSA; conditions: 20 mM Bis-Tris pH 6.5, 50 mM NaCl, 15% glycerol, 10 mM beta-mercaptoethanol, 37 C 30 min, 33 nM HJ, 0-20 uM RadD; 8% native PAGE in 0.5x TBE; text says …
[12] = substrate: Nc1ncnc2c1ncn2[C@@H]1O[C@H](COP(=O)(O)OP(=O)(O)OP(=O)(O)O)[C@@H](O)[C@H]1O; assay: malachite green phosphate release ATPase assay; format: biochemical, Escherichia coli; conditions: 0.4 μM RadD, 20 mM Hepes pH 7.5, 150 mM NaCl, 3 mM MgCl2, 20 °C, 30 min, no DNA or SSB

## Nc1ncnc2c1ncn2[C@@H]1O[C@H](COP(=O)(O)OP(=O)(O)O)[C@@H](O)[C@H]1O [ADP]
RadD [1]
  X-ray crystal structure, 2.7 Å: RadD/ADP PDB: 8H5Y

## Nc1ncnc2c1ncn2[C@@H]1O[C@H](COP(=O)(O)OP(=O)(O)OP(=O)(O)O)[C@@H](O)[C@H]1O [ATP]
RadD [2]
  ATPase activity: The ATPase activity of mutant K68A is three times that of the wild-type
RadD [3]
  ATPase activity: mutant G34E, G36E, K37A, D117R, and R343A lost their ATPase activity
RadD [4]
  ATPase activity: mutants R6A and N9A were not significantly different from the wild-type
RadD [5]
  ATPase activity: mutant G34E, G36E, K37A, D117R, and R343A lost their ATPase activity
RadD [6]
  ATPase activity: mutant G34E, G36E, K37A, D117R, and R343A lost their ATPase activity
RadD [7]
  ATPase activity: mutant G34E, G36E, K37A, D117R, and R343A lost their ATPase activity
RadD [8]
  ATPase activity: mutant G34E, G36E, K37A, D117R, and R343A lost their ATPase activity

## Nc1ncnc2c1ncn2[C@@H]1O[C@H](COP(=O)(O)OP(=O)(O)OP(O)(O)=S)[C@@H](O)[C@H]1O [ATPγS]
RadD [9]
  X-ray crystal structure, 3.0 Å: RadD/ATPγS PDB: 8H5Z

## CCGCTACCAGTGATCACCAATGGATTGCTAGGACATCTTTGCCCACCTGCAGGTTCACCC / TGGGTGAACCTGCAGGTGGGCAAAGATGTCCTAGCAATCCATTGTCTATGACGTCAAGCTC / GAGCTTGACGTCATAGACAATGGATTGCTAGGACATCTTTGCCGTCTTGTCAATATCGGC / TGCCGATATTGACAAGACGGCAAAGATGTCCTAGCAATCCATTGGTGATCACTGGTAGCGG [Holliday junction (HJ)]
[10]
  binding signal: 47 % of WT
[11]
  binding signal: 43 % of WT

B1: RadD (Escherichia coli K-12) (protein)
chain: MIFTLRPYQQEAVDATLNHFRRHKTPAVIVLPTGAGKSLVIAELARLARGRVLVLAHVKELVAQNHAKYQALGLEADIFAAGLKRKESHGKVVFGSVQSVARNLDAFQGEFSLLIVDECHRIGDDEESQYQQILTHLTKVNPHLRLLGLTATPFRLGKGWIYQFHYHGMVRGDEKALFRDCIYELPLRYMIKHGYLTPPERLDMPVVQYDFSRLQAQSNGLFSEADLNRELKKQQRITPHIISQIMEFAATRKGVMIFAATVEHAKEIVGLLPAEDAALITGDTPGAERDVLIENFKAQRFRYLVNVAVLTTGFDAPHVDLIAILRPTESVSLYQQIVGRGLRLAPGKTDCLILDYAGNPHDLYAPEVGTPKGKSDNVPVQVFCPACGFANTFWGKTTADGTLIEHFGRRCQGWFEDDDGHREQCDFRFRFKNCPQCNAENDIAARRCRECDTVLVDPDDMLKAALRLKDALVLRCSGMSLQHGHDEKGEWLKITYYDEDGADVSERFRLQTPAQRTAFEQLFIRPHTRTPGIPLRWITAADILAQQALLRHPDFVVARMKGQYWQVREKVFDYEGRFRLAHELRG
notes: recombinant RadD from RadD-pET-28a / RadD-pGEX-6p-1 plasmids expressed in E. coli; full-length with RD1, RD2, ZFD, CTD
[12]
  Km: 3.48 mM
